Measurements: patent US20180215727A1, “LYSYL OXIDASE-LIKE 2 INHIBITORS AND USES THEREOF” (PharmAkea, Inc., priority 2015, published 2018)
Where a name gives a salt, the structure may show the parent alone.

Biological target: T1, human LOXL2 (Homo sapiens, UniProt Q9Y4K0)
T1 construct: expressed in transfected cells; secreted protein in 10-20x concentrated conditioned media
T1 sequence (Q9Y4K0 26-774): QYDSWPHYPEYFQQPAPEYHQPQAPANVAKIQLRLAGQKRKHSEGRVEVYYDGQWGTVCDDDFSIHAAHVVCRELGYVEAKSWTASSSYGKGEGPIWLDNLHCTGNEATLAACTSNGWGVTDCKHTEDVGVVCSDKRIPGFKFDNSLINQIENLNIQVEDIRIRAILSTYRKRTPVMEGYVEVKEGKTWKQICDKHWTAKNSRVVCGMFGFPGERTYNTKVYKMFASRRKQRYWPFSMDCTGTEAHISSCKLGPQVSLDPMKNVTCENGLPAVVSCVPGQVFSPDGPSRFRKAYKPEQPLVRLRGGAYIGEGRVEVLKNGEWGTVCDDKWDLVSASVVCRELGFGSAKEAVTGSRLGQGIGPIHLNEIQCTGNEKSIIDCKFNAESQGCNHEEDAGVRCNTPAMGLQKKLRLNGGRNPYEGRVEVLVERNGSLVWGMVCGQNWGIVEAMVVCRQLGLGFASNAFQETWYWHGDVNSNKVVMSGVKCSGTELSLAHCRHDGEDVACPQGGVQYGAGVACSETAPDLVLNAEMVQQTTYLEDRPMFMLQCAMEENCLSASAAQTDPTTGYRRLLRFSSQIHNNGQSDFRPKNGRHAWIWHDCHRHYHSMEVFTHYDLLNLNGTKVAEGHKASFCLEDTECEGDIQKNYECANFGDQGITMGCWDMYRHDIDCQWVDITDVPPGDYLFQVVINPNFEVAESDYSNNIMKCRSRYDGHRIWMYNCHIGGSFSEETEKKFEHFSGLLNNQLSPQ
Experiment: Human LOXL2 Amine Oxidase Activity Assay (Amplex Red fluorescence)
Type: biochemical
Details: concentrated conditioned media from CHO cells stably expressing human LOXL2, test compound incubated 2 h at 37° C., pH8, DAP substrate
Description: Example B-1: Human LOXL2 Amine Oxidase Activity Assay
LOXL2 amine oxidase activity is evaluated by measuring Amplex Red fluorescence using 10-20× concentrated conditioned media from CHO cells stably expressing human LOXL2. To assay for amine oxidase activity, 10 μL of the concentrated conditioned media is incubated with 2 μL of test compound in DMSO and 73 μL Assay Buffer (50 mM Borate Buffer, pH8) for 2 h at 37° C. After the 2 h incubation, 5 μl of 10 mM 1,5-Diaminopentane (DAP) diluted in Assay Buffer and 10 μl of Amplex Red Mix (8.5 μl Assay Buffer+0.5 μl of 10 mM Amplex Red+1 μl of 500 U/ml Horseradish Peroxidase) are added and the plate mixed and immediately placed on the FlexStaion for fluorescence measurements. Fluorescence is read in kinetic mode every 2 min for 1 hour at excitation=544 and emission=590. The amine oxidase activity is calculated from the slope of the linear portion of the curve.

| SMILES | IC50 [nM] |
| --- | --- |
| CN(C)C(=O)Cn1cc(-c2ccc3oc(CN)cc(=O)c3c2)nn1 [Compound 1-17, 2-(4-(2-(Aminomethyl)-4-oxo-4H-chromen-6-yl)-1H-1,2,3-triazol-1-yl)-N,N-dimethylacetamide hydrochloride] | < 300 |
| NCc1cc(=O)c2cc(OCc3ccccc3)ccc2o1 [Compound 1-30, 2-(Aminomethyl)-6-(benzyloxy)-4H-chromen-4-one hydrochloride] | < 300 |
| C#Cc1ccc2c(=O)cc(CN)oc2c1 [Compound 1-31, 2-(aminomethyl)-7-ethynyl-4H-chromen-4-one hydrochloride] | 300 to 1000 |
| NCc1cc(=O)c2cccc(OCc3cccc(C(=O)Nc4ccccc4)c3)c2o1 [Compound 1-58, 3-(((2-(Aminomethyl)-4-oxo-4H-chromen-8-yl)oxy)methyl)-N-phenylbenzamide hydrochloride] | > 1000 |
| NCc1cc(=O)c2cccc(O)c2o1 [Compound 1-52, 2-(Aminomethyl)-8-hydroxy-4H-chromen-4-one hydrochloride] | 300 to 1000 |
| COC(=O)[C@@H]1CCN(C(=O)c2ccc3oc(CN)cc(=O)c3c2)C1 [Compound 1-24, Methyl (R)-1-(2-(aminomethyl)-4-oxo-4H-chromene-6-carbonyl)pyrrolidine-3-carboxylate hydrochloride] | 300 to 1000 |
| NCc1cc(=O)c2cc(OCC(=O)O)ccc2o1 [Compound 1-34, 2-((2-(Aminomethyl)-4-oxo-4H-chromen-6-yl)oxy)acetic acid hydrochloride] | 300 to 1000 |
| NCc1cc(=O)c2ccc(OCc3ccc(C(F)(F)F)cc3)cc2o1 [Compound 1-62, 2-(Aminomethyl)-7-((4-(trifluoromethyl)benzyl)oxy)-4H-chromen-4-one hydrochloride] | < 300 |
| NCc1cc(=O)c2cccc(OCCOc3ccccc3)c2o1 [Compound 1-56, 2-(Aminomethyl)-8-(2-phenoxyethoxy)-4H-chromen-4-one hydrochloride] | > 1000 |
| NCc1cc(=O)c2ccc(OCc3ccc4ccccc4n3)cc2o1 [Compound 1-65, 2-(Aminomethyl)-7-(quinolin-2-ylmethoxy)-4H-chromen-4-one hydrochloride] | < 300 |
| NCc1cc(=O)c2ccc(Oc3cccc(C(F)(F)F)c3)cc2o1 [Compound 1-67, 2-(Aminomethyl)-7-(3-(trifluoromethyl)phenoxy)-4H-chromen-4-one hydrochloride] | < 300 |
| NCc1cc(=O)c2cccc(OCCc3ccccc3)c2o1 [Compound 1-55, 2-(Aminomethyl)-8-phenethoxy-4H-chromen-4-one hydrochloride] | 300 to 1000 |
| NCc1cc(=O)c2cc(-c3ccccn3)ccc2o1 [Compound 1-7, 2-(Aminomethyl)-6-(pyridin-2-yl)-4H-chromen-4-one hydrochloride] | < 300 |
| NCc1cc(=O)c2cc(Br)ccc2o1 [Compound 1-1, 2-(Aminomethyl)-6-bromo-4H-chromen-4-one hydrochloride] | < 300 |
| C#Cc1ccc2oc(CN)cc(=O)c2c1 [Compound 1-3, 2-(Aminomethyl)-6-ethynyl-4H-chromen-4-one hydrochloride] | < 300 |
| NCc1cc(=O)c2ccc(-n3cccn3)cc2o1 [Compound 1-11, 2-(Aminomethyl)-7-(1H-pyrazol-1-yl)-4H-chromen-4-one hydrochloride] | < 300 |
| NCc1cc(=O)c2cccc(Br)c2o1 [Compound 1-50, 2-(Aminomethyl)-8-bromo-4H-chromen-4-one hydrochloride] | 300 to 1000 |
| NCc1cc(=O)c2cccc(OCC(=O)Nc3ccccc3)c2o1 [Compound 1-57, 2-((2-(Aminomethyl)-4-oxo-4H-chromen-8-yl)oxy)-N-phenylacetamide hydrochloride] | 300 to 1000 |
| COC(=O)[C@H]1CCN(C(=O)c2ccc3oc(CN)cc(=O)c3c2)C1 [Compound 1-36, Methyl (S)-1-(2-(aminomethyl)-4-oxo-4H-chromene-6-carbonyl)pyrrolidine-3-carboxylate hydrochloride] | > 1000 |

| SMILES | IC50 [nM] |
| --- | --- |
| NCc1cc(=O)c2ccc(Oc3ccccc3)cc2o1 [Compound 1-68, 2-(Aminomethyl)-7-phenoxy-4H-chromen-4-one hydrochloride] | < 300 |
| NCc1cc(=O)c2ccc(OCCOc3ccccc3)cc2o1 [Compound 1-46, 2-(Aminomethyl)-7-(2-phenoxyethoxy)-4H-chromen-4-one hydrochloride] | < 300 |
| NCc1cc(=O)c2ccc(O)cc2o1 [Compound 1-43, 2-(Aminomethyl)-7-hydroxy-4H-chromen-4-one hydrochloride] | 300 to 1000 |
| NCc1cc(=O)c2ccc(OCc3cccc(C(=O)Nc4ccccc4)c3)cc2o1 [Compound 1-48, 3-(((2-(Aminomethyl)-4-oxo-4H-chromen-7-yl)oxy)methyl)-N-phenylbenzamide hydrochloride] | < 300 |
| NCc1cc(=O)c2cc(-n3cccn3)ccc2o1 [Compound 1-10, 2-(Aminomethyl)-6-(1H-pyrazol-1-yl)-4H-chromen-4-one hydrochloride] | < 300 |
| NCc1cc(=O)c2cc(-c3cccnc3)ccc2o1 [Compound 1-8, 2-(Aminomethyl)-6-(pyridin-3-yl)-4H-chromen-4-one hydrochloride] | < 300 |
| NCc1cc(=O)c2cc(-c3cn(CCO)nn3)ccc2o1 [Compound 1-16, 2-(Aminomethyl)-6-(1-(2-hydroxyethyl)-1H-1,2,3-triazol-4-yl)-4H-chromen-4-one hydrochloride] | 300 to 1000 |
| NCc1cc(=O)c2cc(-c3cn(Cc4ccccc4)nn3)ccc2o1 [Compound 1-15, 2-(Aminomethyl)-6-(1-benzyl-1H-1,2,3-triazol-4-yl)-4H-chromen-4-one hydrochloride] | < 300 |
| COc1ccc2oc(CN)cc(=O)c2c1 [Compound 1-27, 2-(Aminomethyl)-6-methoxy-4H-chromen-4-one hydrochloride] | < 300 |
| NCc1cc(=O)c2cc(C(=O)N3CCC(C(=O)O)C3)ccc2o1 (single isomer, unassigned) [Compound 1-38, (R) or (S)-1-(2-(Aminomethyl)-4-oxo-4H-chromene-6-carbonyl)pyrrolidine-3-carboxylic Acid hydrochloride] | > 1000 |
| NCc1cc(=O)c2cc(C(=O)NCCn3cncn3)ccc2o1 [Compound 1-21, N-(2-(1H-1,2,4-Triazol-1-yl)ethyl)-2-(aminomethyl)-4-oxo-4H-chromene-6-carboxamide hydrochloride] | 300 to 1000 |
| NCc1cc(=O)c2cc(C(=O)N3C[C@H](O)[C@@H](F)C3)ccc2o1 [Compound 1-60, 2-(Aminomethyl)-6-((3S,4S)-3-fluoro-4-hydroxypyrrolidine-1-carbonyl)-4H-chromen-4-one hydrochloride] | 300 to 1000 |
| COc1ccc(COc2ccc3c(=O)cc(CN)oc3c2)cc1 [Compound 1-64, 2-(Aminomethyl)-7-((4-methoxybenzyl)oxy)-4H-chromen-4-one] | < 300 |
| C=C(C)C#Cc1ccc2oc(CN)cc(=O)c2c1 [Compound 1-5, 2-(Aminomethyl)-6-(3-methylbut-3-en-1-yn-1-yl)-4H-chromen-4-one trifluoroacetate] | < 300 |
| NCc1cc(=O)c2cc(C(=O)N3C[C@@H](O)[C@H](F)C3)ccc2o1 [Compound 1-61, 2-(Aminomethyl)-6-((3R,4R)-3-fluoro-4-hydroxypyrrolidine-1-carbonyl)-4H-chromen-4-one hydrochloride] | 300 to 1000 |
| NCc1cc(=O)c2ccc(-c3cn(-c4ccccc4)nn3)cc2o1 [Compound 1-33, 2-(Aminomethyl)-7-(1-phenyl-1H-1,2,3-triazol-4-yl)-4H-chromen-4-one hydrochloride] | < 300 |
| NCc1cc(=O)c2cc(C(=O)N3CCCCC3)ccc2o1 [Compound 1-19, 2-(Aminomethyl)-6-(piperidine-1-carbonyl)-4H-chromen-4-one hydrochloride] | 300 to 1000 |
| NCc1cc(=O)c2cc(-c3ccccc3)ccc2o1 [Compound 1-6, 2-(Aminomethyl)-6-phenyl-4H-chromen-4-one hydrochloride] | < 300 |
| NCc1cc(=O)c2cc(C(=O)N3CCC(C(=O)O)C3)ccc2o1 (single isomer, unassigned) [Compound 1-37, (R) or (S)-1-(2-(Aminomethyl)-4-oxo-4H-chromene-6-carbonyl)pyrrolidine-3-carboxylic Acid hydrochloride] | > 1000 |
